The values that follow come from PMC9303812, “Asymmetrically Substituted m‐Terphenyl Phosphates Inhibit the Transcription Factor STAT5a” (Chembiochem, 2021).

Structures are written as SMILES.

The target of series [1] is T1, STAT5a (Homo sapiens, UniProt P42229).
T1 sequence (P42229 1-794): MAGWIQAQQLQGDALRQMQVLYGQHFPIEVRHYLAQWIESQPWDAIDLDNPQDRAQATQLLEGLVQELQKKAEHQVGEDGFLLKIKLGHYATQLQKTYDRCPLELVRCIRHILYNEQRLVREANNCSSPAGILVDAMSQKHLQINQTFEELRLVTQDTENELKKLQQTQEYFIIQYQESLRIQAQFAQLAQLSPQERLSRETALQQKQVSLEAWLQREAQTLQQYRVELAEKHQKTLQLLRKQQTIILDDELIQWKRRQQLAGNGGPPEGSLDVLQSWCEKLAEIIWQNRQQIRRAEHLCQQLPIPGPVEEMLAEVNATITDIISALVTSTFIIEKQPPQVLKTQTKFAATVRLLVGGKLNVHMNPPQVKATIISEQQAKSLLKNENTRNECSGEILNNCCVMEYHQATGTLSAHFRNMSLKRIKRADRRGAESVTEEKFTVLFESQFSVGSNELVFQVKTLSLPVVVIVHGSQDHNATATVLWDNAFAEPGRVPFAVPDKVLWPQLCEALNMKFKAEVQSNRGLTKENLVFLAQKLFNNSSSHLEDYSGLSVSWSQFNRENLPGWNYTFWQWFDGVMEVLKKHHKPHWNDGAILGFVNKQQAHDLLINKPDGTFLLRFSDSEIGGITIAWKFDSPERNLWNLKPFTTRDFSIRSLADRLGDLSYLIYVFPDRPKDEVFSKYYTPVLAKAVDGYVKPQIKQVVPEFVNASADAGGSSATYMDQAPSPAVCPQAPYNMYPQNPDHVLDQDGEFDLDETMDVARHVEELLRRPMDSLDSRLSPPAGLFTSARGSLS
Nature of the series: Fluorescence polarization (FP) binding assay, STAT5a. How it is done:
(§1) Table S1: Activities of test compounds against STAT5a and STAT5b in FP assays . Experiments were carried out in triplicate (n = 3) unless stated otherwise. n/a: not applicable.
(§2) [a]data taken from the literature.[1]
(§3) Ki values were calculated from IC50 values using the published equation.[2] […]
(§4) Table S2: Activities of 12 against STAT5 proteins in FP assays.
(§5) Fluorescence polarization assays
(§6) Fluorescence polarization assays were essentially carried out as previously described.[1] These assays quantitate to which extent a test compound is able to interfere with binding between a STAT protein and a fluorescein-labeled phosphotyrosine-containing peptide, which is known to bind to the SH2 domain of the respective STAT protein. The following protein […]
(§7) concentrations were used: 100 nM for STAT1, 150 nM for STAT3, 30 nM for STAT4, 180 nM for STAT5a, 90 nM for STAT5b and 105 nM for STAT6. All peptides were used at a concentration of 10 nM. The following peptides were used: 5 -carboxyfluorescein -GpYDKPHVL for STAT1; 5-carboxyfluorescein -GpYLPQTV-NH2 for STAT3; 5-carboxyfluorescein-GpYLPQNID-OH for STAT4; 5-carboxyfluorescein-GpYLVLDKW for STAT5a/b, and 5-carboxyfluorescein-GpYVPWQDLI-OH for STAT6. As a buffer system, 10 mM Tris (pH 8.0), 50 mM NaCl, 1 mM EDTA, 1 mM DTT, 0.1 % Nonidet P-40 substitute, and 2 % DMSO in water was used. All compounds tested were incubated for 1 h with the protein. Subsequently, the fluorescein-labeled peptide was added and the fluorescence polarization was measured with an Infinite F500 plate reader (Tecan) after another hour. IC50 values were converted to Ki-values using the published equation.[2]

A further series has as its target T2, STAT5b (Homo sapiens, UniProt P51692).
T2 sequence (P51692 1-787): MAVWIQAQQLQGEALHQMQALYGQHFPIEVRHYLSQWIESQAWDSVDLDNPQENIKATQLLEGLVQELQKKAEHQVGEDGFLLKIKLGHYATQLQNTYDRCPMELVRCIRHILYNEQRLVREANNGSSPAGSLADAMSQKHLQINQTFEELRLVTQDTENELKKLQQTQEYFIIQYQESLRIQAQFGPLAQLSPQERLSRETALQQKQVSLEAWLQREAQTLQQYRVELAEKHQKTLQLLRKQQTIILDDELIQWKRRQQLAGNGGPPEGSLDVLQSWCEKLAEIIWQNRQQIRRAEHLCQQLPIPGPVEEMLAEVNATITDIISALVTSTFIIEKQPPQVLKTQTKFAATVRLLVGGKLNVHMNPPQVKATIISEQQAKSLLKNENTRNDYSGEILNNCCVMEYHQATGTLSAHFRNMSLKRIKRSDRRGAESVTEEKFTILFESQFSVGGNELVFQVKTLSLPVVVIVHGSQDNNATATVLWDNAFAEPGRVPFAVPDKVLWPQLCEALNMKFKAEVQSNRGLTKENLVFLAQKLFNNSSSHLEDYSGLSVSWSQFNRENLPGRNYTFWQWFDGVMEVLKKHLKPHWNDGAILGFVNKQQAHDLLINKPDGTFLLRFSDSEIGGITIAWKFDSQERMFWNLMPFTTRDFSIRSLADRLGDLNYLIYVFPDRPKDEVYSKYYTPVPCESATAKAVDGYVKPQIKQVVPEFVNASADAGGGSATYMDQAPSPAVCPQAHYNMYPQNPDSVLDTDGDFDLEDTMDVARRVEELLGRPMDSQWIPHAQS
Put plainly: Fluorescence polarization (FP) binding assay, STAT5b. Conditions: for inhibition at 200 µM: read-out: STAT5b inhibition at 200 μM. As for the experimental part:
as §1, §2, §3, §4, §5, §6, §7
In general terms: In fluorescence polarisation assays a small probe gives low polarisation when free and higher when bound to something large.

Series [2] concerns the target T1, STAT5a. Conditions: cited from earlier work.

As to `COc1cc(-c2cc(OP(=O)(O)O)cc(-c3ccc(Cl)c(F)c3)c2)cc(OC)c1OC` [6 e], the melting point came to 127 °C. At STAT5a [1], this compound registered a half-maximal inhibitory concentration (IC50) of 34.7 ± 4.4 µM and a Ki of 17.1 ± 2.2 µM. On STAT5b, the IC50 stood at 104 ± 9.5 µM and the affinity corresponds to a Ki of 51.2 ± 4.7 µM.
For the compound `COc1cc(-c2cc(OP(=O)(O)O)cc(-c3ccc(C(C)C)cc3)c2)cc(OC)c1OC` [6 i], the melting point was found to be 182 °C. For the same compound, at STAT5a [1], the concentration for half-maximal inhibition (IC50) amounted to 48.5 ± 4.8 µM and the affinity, expressed as Ki, was 24 ± 2.4 µM. At STAT5b, this compound displayed an IC50 of 51.8 ± 5.1 µM and a Ki of 25.5 ± 2.5 µM.
As for `COc1cc(-c2cc(OP(=O)(O)O)cc(-c3ccc(C(N)=O)cc3)c2)cc(OC)c1OC` [6 f], on STAT5a [1], the concentration for half-maximal inhibition (IC50) is 68.9 ± 4.9 µM and the Ki turned out to be 34.1 ± 2.4 µM. Also, on STAT5b, the inhibition at 200 µM stood at 21 ± 6%.
Take `COc1cc(-c2cc(OP(=O)(O)O)cc(-c3ccc(C(C)(C)C)cc3)c2)cc(OC)c1OC` [6 j]: on STAT5a [1], the 50% inhibitory concentration (IC50) stood at 66.9 ± 4.9 µM and the Ki amounted to 33.2 ± 2.4 µM. On STAT5b, this compound gave an IC50 of 51.4 ± 4.9 µM and a Ki of 25.3 ± 2.4 µM.
As for `COc1cc(-c2cc(OP(=O)(O)O)cc(-c3cc(OC)c(OC)c(OC)c3)c2)cc(OC)c1OC` [compound 1], the “selectivity for STAT5a over STAT5b” value on STAT5a [2] was “at least 9 fold”.
Compound `COc1cc(-c2cc(OP(=O)(O)O)cc(-c3ccc(F)cc3)c2)cc(OC)c1OC` [6 d] displayed a melting point of 165 °C. At STAT5a [1], this compound returned an IC50 of 66.5 ± 5 µM and a Ki of 33 ± 2.5 µM. In addition, the inhibition at 200 µM on STAT5b was found to be 51 ± 4%.
Consider `COc1cc(-c2cc(OP(=O)(O)O)cc(-c3ccc(C(=O)O)cc3)c2)cc(OC)c1OC` [6 h], for which the melting point worked out at 152 °C. On STAT5a [1], this compound displayed an IC50 of 36.8 ± 2.2 µM and an inhibition constant (Ki) of 18.2 ± 1.1 µM. Moreover, at STAT5b, the inhibition at 200 µM is 50 ± 2%.
As to `COc1cc(-c2cc(OP(=O)(O)O)cc(-c3ccc(Cl)cc3)c2)cc(OC)c1OC` [6 c], the melting point came out at 129 °C. At STAT5a [1], this compound yielded an IC50 of 45.7 ± 3.3 µM and a Ki of 22.6 ± 1.6 µM. Besides, at STAT5b, the IC50 amounted to 93.8 ± 1.5 µM and the Ki was 46.1 ± 0.8 µM.
On the same counts, the results for `CCOC(=O)c1ccc(-c2cc(OP(=O)(O)O)cc(-c3cc(OC)c(OC)c(OC)c3)c2)cc1` [6 g] are 150 °C, 91.2 ± 5.5 µM, 45.2 ± 2.7 µM, 125 ± 3.7 µM and 61.3 ± 1.8 µM.
For `COc1cc(-c2cc(OP(=O)(O)O)cc(-c3cc(Cl)c(Cl)c(Cl)c3)c2)cc(OC)c1OC` [6 a], the IC50 stood at 21.8 ± 0.9 µM on STAT5a [1] and 47 ± 2.6 µM on STAT5b. The values for the Ki at STAT5a [1] and at STAT5b were 10.2 ± 0.4 µM and 23.1 ± 1.3 µM, respectively.

Broadly, the IC50 is the concentration that gives 50% inhibition. Read a low IC50 as inhibition by little substance. Broadly, the Ki is the dissociation constant of the complex between target and ligand, obtained from inhibition or displacement. As usually defined, the melting point is the temperature, or range, at which the solid turns liquid. Broadly, the inhibition is the change of the read-out against control, counted positive when it falls.
